According to patent US9801958B2, “Polymer nanoparticle composite and composition for MRI imaging including same” (THE UNIVERSITY OF TOKYO, priority 2013, dated 2017):

Experiments:
[1] = system: Colon26 liver metastatic tumor; details: property in clinical practice; cited from earlier work
[2] = Relaxivity measurement and T1-weighted imaging in solution, 1T MR; type: physicochemical; details: 0.1-0.5 mM, distilled water
Protocol: In order to measure the relaxivity of the produced MnCaP nanoparticle composite and compare the contrast effect with existing MnCl2 alone, a preclinical permanent magnet type 1T (Tesla) MR equipment (Icon™, Bruker-Biospin, Germany) was used to measure the relaxivity and acquire T1-weighted images for comparison. For the measurements, the MnCaP nanoparticle composite at a concentration of 0.1-0.5 mM and MnCl2 at the same concentration were used and measured in PCR sample tubes. Distilled water was used for dilution.
The relaxivity was measured using a proton volume coil (inner diameter 35 mm). As the contrast method, a rapid spin-echo technique adopting inversion pulse (Rapid Acquisition with Relaxation Enhancement, RARE) was employed. […]

[3] = mouse, in vivo
Text: Here, the maximum tolerant dose (MTD) of MnCaP for a mouse is about 1.5 mmol/kg. In this regard, the maximum tolerant dose (MTD) of MnCl2 is about 0.22 mmol/kg, which is about 1/7 the maximum tolerant dose (MTD) of MnCaP. Therefore, the polymer nanoparticle composite of the present invention that uses MnCaP is also extremely good for practical use in MRI contrast in terms of maximum tolerant dose (MTD).

SMILES | appearance of normal liver region (clinical contrast agent) [1] | signal change in liver tumor region (clinical contrast agent) [1] | longitudinal relaxivity r1 [2] [mM⁻¹ s⁻¹] | MTD of MnCl2 relative to MTD of MnCaP [3] | maximum tolerant dose (MTD) [3]
CCOc1ccc(C[C@@H](CN(CCN(CC(=O)[O-])CC(=O)[O-])CC(=O)[O-])N(CC(=O)[O-])CC(=O)[O-])cc1.[Gd+3].[H+].[H+] [Gd-EOB-DTPA] | in white | almost no change |  |  | 
[Cl][Mn][Cl] [MnCl2] |  |  | 7.30 to 7.58 | about 1/7 | about 0.22 mmol/kg
